Entries after “also recorded” stand apart in the source; their conditions may differ.
How the values were obtained:
HPIV3 [1] = experiment: HPIV3 titer (infectious viral particles) released by infected Calu-3 cells / HAE treated with protease inhibitor; type: cell-based, human parainfluenza virus 3 (HPIV3); conditions: for production of infectious viral particles / viral spread (HPIV3 titer): Calu-3 cell culture media and HAE apical washes 3 days after infection (FIG. 3); for viral titer: virions released by infected Calu-3 cells into the media (FIG. 8A)
Text: Values are means and SEM from one biological replicate.

[2] = tested on: serine proteases, such as TMPRSS2; experiment: Inhibition of serine proteases (statement without method)
HPIV3 F = conditions: for HPIV3 F cleavage: Calu-3 cells and HAE inoculated with HPIV-3 F E108 or F K108, treated after inoculation (FIG. 3); for HPIV3 F E108 (F0) cleavage: Western blot of Calu-3 cell media (FIG. 8B)
Experimental: (A) Calu-3 cells and (B) HAE were inoculated with HPIV-3 F E108 (left) or HPIV-3 F K108 (right). After inoculation, cells were treated with the indicated concentrations of aprotinin or leupeptin. HPIV3 infected Calu-3 cell culture media and HAE apical wash resolved by reducing SDS-PAGE and immunoblotted with anti-HPIV3 F antibody. HPIV3 titer in cell culture media and HAE apical washes 3 days after infection. Values are means and SEM from 1-3 biological replicates.
Virions released by the infected cells into the media were titered. B) Western blotting for HPIV3 F in Calu-3 cell media.

HPIV3 [3] = experiment: HPIV3 spread in intranasally infected cotton rats, viral titer of nasal tissue by plaque assay; conditions: intranasal nafamostat 3 mg/kg body weight daily, sacrificed 3 days after infection (FIG. 5)
Experimental: Viral titer (LogTCID50 per gram of nasal tissue) was determined by plaque assay. Values are means and SEM.

| Compound | production of infectious viral particles / viral spread (HPIV3 titer) (HPIV3 [1]) | viral titer (HPIV3 [1]) | inhibition of serine proteases, such as TMPRSS2 [2] | HPIV3 F cleavage (HPIV3 F) | HPIV3 F E108 (F0) cleavage (HPIV3 F) | HPIV3 spread in vivo (viral titer, LogTCID50 per gram of nasal tissue) (HPIV3 [3]) |
| --- | --- | --- | --- | --- | --- | --- |
| CC(=O)N[C@@H](CC(C)C)C(=O)N[C@@H](CC(C)C)C(=O)N[C@H](C=O)CCCNC(=N)N [leupeptin] | inhibited viral spread; also recorded: reduces production of infectious viral particles | reduced viral titer | effective inhibitors of serine proteases | block HPIV3 F cleavage | reduced HPIV3 F E108 cleavage | – |
| N=C(N)c1ccc2cc(OC(=O)c3ccc(N=C(N)N)cc3)ccc2c1 [Nafamostat] | – | – | – | – | – | reduced HPIV3 spread in nasal tissue of cotton rats; also recorded: blocks HPIV3 spread in vivo |
| aprotinin | inhibited viral spread; also recorded: reduces production of infectious viral particles | reduced viral titer; also recorded: dose-dependent reduction in viral titer | effective inhibitors of serine proteases | block HPIV3 F cleavage | reduced HPIV3 F E108 cleavage; also recorded: significant reduction in F0 cleavage | – |
| CN(C)C(=O)COC(=O)Cc1ccc(OC(=O)c2ccc(NC(=N)N)cc2)cc1 [camostat] | – | – | effective inhibitors of serine proteases | – | – | – |

Source: US20250064891A1, “HOST PROTEASES ESSENTIAL FOR PARAINFLUENZA SPREAD IN THE HUMAN LUNG: POTENTIAL TARGETS FOR ANTIVIRAL INTERVENTIONS” (The Trustees of Columbia University in the City of New York, priority 2022, published 2025)
